# Test results: patent US8637268B2, “Determination of von Willebrand Factor cleavage by ADAMTS13” (Puget Sound Blood Center, priority 2010, dated 2014)
# Assays:
# Assay type in all cases: biochemical
# [1] = biological target: T1, long A2 (Asp1459-Gly1674) (Homo sapiens, UniProt P04275, D1472H); test: ADAMTS13 cleavage of recombinant VWF fragment long A2 (SDS-PAGE, western blotting); details: in the presence of ristocetin, 37° C., 5 hr (FIG. 3)
# T1 construct: long A2 (Asp1459-Gly1674); made in house; host or cells: HEK293 Tet-On cells
# Description: (§1) Recombinant ADAMTS13 (Ala75-Thr1427) and VWF fragments A1A2A3 (Asp1261-Ile1878), long A2 (Asp1459-Gly1674), and short A2 (Met1473-Gly1674) were expressed as fusion proteins with the pNBioSec vector (Mize et al., Protein Expr Purif, 57(2):280-289 (2008)) in HEK293 Tet-On cells as previously described (Chen et al., Blood, 115(3):706-712 (2010)). In this expression system, recombinant proteins were secreted with dual tags: an N-terminal biotin-tag and a C-terminal protein C epitope tag. Serum-free-cell-culture medium containing the secreted recombinant proteins was concentrated 10-fold by centrifugation over an Ultra-10K filter and desalted over Sephadex G25.
# (§2) Plasma VWF was purified from cryoprecipitate as described previously (Chen et al., Blood, 115(3):706-712 (2010)). Cleavage of recombinant VWF fragments by ADAMTS13 was carried out at 37° C. for 5 hours with or without modulators. The reactions were stopped by EDTA (final concentration 10 mM). Cleavage products were analyzed by electrophoresis in 4-15% gradient polyacrylamide gels (Bio-Rad Laboratories, Hercules, Calif.) after reduction. […]
# (§3) Cleavage of recombinant VWF fragments (1 μg/ml) by ADAMTS13 (0.15 μg/ml) was carried out at 37° C. for 5 hours in the presence of either 1.5 M urea, or 1.5 mg/ml ristocetin. […] Cleavage products were analyzed by electrophoresis in 4-15% gradient polyacrylamide gels after reduction. […]
# Multimeric VWF = biological target: T2, Multimeric VWF (Homo sapiens, UniProt P04275); test: Detection of methionine oxidation in VWF by mass spectrometry (HOCl-generating system MPO plus H2O2)
# T2 construct: purified, multimeric VWF from plasma; from tissue
# Description: Multimeric VWF was incubated with an HOC1-generating system containing 25 nM MPO plus H2O2 at various concentrations in PBS (pH 7.4) at 37° C. for 1 hr in the presence or absence of 1.0 mg/ml ristocetin. The oxidation reaction was stopped by the addition of excess free methionine. The oxidized protein was digested with trypsin and the peptides analyzed by nano liquid chromatography-electrospray ionization-tandem mass spectrometry (nanoLC-ESI-MS/MS).
# [2] = biological target: T3, short A2 (Met1473-Gly1674) (Homo sapiens, UniProt P04275); test: ADAMTS13 cleavage of recombinant VWF fragment short A2 (SDS-PAGE, western blotting); details: 1.5 M urea or 1.5 mg/ml ristocetin, 37° C., 5 hr (FIG. 4)
# T3 construct: short A2 (Met1473-Gly1674); made in house; host or cells: HEK293 Tet-On cells
# Description: as §1, §2, §3
# A1A2A3 (Asp1261-Ile1878) = biological target: T4, A1A2A3 (Asp1261-Ile1878) (Homo sapiens, UniProt P04275); test: ADAMTS13 cleavage of recombinant VWF fragment A1A2A3 (SDS-PAGE, western blotting); details: for ADAMTS13 cleavage of A1A2A3: 37° C., 5 hr (FIG. 2)
# T4 construct: VWF fragments A1A2A3 (Asp1261-Ile1878); made in house; host or cells: HEK293 Tet-On cells
# Description: as §1
# (§4) Plasma VWF was purified from cryoprecipitate as described previously (Chen et al., Blood, 115(3):706-712 (2010)). Cleavage of recombinant VWF fragments by ADAMTS13 was carried out at 37° C. for 5 hours with or without modulators. The reactions were stopped by EDTA (final concentration 10 mM). Cleavage products were analyzed by electrophoresis in 4-15% gradient polyacrylamide gels (Bio-Rad Laboratories, Hercules, Calif.) after reduction. Cleavage products were transferred onto nitrocellulose membranes, blocked with 1% albumin in Tris-buffered saline with 0.05% Tween-20, probed with HRP-conjugated streptavidin (Thermal Scientific, Rockford, Ill.), and visualized with the Immobilon Western HRP substrate (Millipore).
# (§5) Cleavage of recombinant VWF fragments (1 μg/ml) by ADAMTS13 (0.15 μg/ml) was carried out at 37° C. for 5 hours in the presence of either 1.5 M urea, or 1.5 mg/ml ristocetin. The reactions were stopped by EDTA. Cleavage products were analyzed by electrophoresis in 4-15% gradient polyacrylamide gels after reduction. Cleavage products were transferred onto nitrocellulose membranes, blocked with 1% albumin in Tris-buffered saline with 0.05% Tween-20, probed with HRP-conjugated streptavidin, and visualized with the Immobilon Western HRP substrate.
# A1A2 fragment = test: ADAMTS13 cleavage of recombinant VWF fragment A1A2 (SDS-PAGE, western blotting)
# Description: as §4, §5
# [3] = biological target: T5, purified multimeric plasma VWF (Homo sapiens, UniProt P04275); test: ADAMTS13 cleavage of purified multimeric plasma VWF, multimer pattern on agarose gel; details: 0.75 and 1.0 mg/ml ristocetin, 37° C., under stasis (FIG. 1A)
# T5 construct: Plasma VWF was purified from cryoprecipitate as described previously; from tissue; host or cells: plasma cryoprecipitate (VWF); HEK293 Tet-On cells (ADAMTS13)
# Description: Cleavage of purified VWF (2 μg/ml) by recombinant ADAMTS13 (0.4 μg/ml) was performed at 37° C. in the absence or presence of urea or ristocetin. The reactions were stopped at the indicated times with EDTA (final concentration 10 mM).
# (§6) The VWF multimer pattern was evaluated by 1.5% agarose gel electrophoresis followed by Western blotting with a HRP-conjugated polyclonal VWF antibody (Dako, Inc., Carpinteria, Calif.) previously described (Chen et al., J Clin Invest, Submitted (2010)).
# VWF = biological target: T6, VWF (Homo sapiens, UniProt P04275); test: Cleavage of VWF by endogenous ADAMTS13 in citrated pooled normal plasma, multimer pattern on agarose gel
# T6 construct: Cleavage of VWF by ADAMTS13 in citrated pooled normal plasma; tissue Precision BioLogic; host or cells: citrated pooled normal plasma, diluted 10-fold
# Description: Cleavage of VWF by ADAMTS13 in citrated pooled normal plasma was examined by incubating 10-fold diluted plasma at 37° C. for various times. Monoclonal ADAMTS13 antibody or control antibody (final concentration: 20 μg/ml) was added to an aliquot of the diluted plasma. ADAMTS13 cleavage was stopped at indicated times with EDTA.
# as §6
# [4] = 1.0 mg/ml ristocetin versus buffer, 25 nM MPO plus H2O2, 1 hr (FIG. 6A)
# T4 sequence (P04275 1261-1878, one chain of several): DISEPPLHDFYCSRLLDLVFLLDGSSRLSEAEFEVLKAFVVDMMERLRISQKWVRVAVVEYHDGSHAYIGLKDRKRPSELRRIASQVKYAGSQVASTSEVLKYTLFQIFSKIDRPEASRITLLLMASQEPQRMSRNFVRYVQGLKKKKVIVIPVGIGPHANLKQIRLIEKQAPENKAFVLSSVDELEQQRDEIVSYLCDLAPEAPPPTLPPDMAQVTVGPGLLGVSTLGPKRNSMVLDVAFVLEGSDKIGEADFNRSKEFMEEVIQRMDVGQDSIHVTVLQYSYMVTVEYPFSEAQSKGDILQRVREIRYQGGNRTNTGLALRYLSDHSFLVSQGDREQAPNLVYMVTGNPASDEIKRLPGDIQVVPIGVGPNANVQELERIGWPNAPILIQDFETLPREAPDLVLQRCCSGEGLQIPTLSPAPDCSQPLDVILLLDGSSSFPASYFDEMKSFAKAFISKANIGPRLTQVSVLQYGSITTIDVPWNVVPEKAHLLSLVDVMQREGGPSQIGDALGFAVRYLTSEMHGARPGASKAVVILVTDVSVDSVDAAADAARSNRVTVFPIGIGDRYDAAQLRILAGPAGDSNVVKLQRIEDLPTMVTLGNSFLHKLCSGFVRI
# T2 sequence (P04275 764-2813 limits assumed): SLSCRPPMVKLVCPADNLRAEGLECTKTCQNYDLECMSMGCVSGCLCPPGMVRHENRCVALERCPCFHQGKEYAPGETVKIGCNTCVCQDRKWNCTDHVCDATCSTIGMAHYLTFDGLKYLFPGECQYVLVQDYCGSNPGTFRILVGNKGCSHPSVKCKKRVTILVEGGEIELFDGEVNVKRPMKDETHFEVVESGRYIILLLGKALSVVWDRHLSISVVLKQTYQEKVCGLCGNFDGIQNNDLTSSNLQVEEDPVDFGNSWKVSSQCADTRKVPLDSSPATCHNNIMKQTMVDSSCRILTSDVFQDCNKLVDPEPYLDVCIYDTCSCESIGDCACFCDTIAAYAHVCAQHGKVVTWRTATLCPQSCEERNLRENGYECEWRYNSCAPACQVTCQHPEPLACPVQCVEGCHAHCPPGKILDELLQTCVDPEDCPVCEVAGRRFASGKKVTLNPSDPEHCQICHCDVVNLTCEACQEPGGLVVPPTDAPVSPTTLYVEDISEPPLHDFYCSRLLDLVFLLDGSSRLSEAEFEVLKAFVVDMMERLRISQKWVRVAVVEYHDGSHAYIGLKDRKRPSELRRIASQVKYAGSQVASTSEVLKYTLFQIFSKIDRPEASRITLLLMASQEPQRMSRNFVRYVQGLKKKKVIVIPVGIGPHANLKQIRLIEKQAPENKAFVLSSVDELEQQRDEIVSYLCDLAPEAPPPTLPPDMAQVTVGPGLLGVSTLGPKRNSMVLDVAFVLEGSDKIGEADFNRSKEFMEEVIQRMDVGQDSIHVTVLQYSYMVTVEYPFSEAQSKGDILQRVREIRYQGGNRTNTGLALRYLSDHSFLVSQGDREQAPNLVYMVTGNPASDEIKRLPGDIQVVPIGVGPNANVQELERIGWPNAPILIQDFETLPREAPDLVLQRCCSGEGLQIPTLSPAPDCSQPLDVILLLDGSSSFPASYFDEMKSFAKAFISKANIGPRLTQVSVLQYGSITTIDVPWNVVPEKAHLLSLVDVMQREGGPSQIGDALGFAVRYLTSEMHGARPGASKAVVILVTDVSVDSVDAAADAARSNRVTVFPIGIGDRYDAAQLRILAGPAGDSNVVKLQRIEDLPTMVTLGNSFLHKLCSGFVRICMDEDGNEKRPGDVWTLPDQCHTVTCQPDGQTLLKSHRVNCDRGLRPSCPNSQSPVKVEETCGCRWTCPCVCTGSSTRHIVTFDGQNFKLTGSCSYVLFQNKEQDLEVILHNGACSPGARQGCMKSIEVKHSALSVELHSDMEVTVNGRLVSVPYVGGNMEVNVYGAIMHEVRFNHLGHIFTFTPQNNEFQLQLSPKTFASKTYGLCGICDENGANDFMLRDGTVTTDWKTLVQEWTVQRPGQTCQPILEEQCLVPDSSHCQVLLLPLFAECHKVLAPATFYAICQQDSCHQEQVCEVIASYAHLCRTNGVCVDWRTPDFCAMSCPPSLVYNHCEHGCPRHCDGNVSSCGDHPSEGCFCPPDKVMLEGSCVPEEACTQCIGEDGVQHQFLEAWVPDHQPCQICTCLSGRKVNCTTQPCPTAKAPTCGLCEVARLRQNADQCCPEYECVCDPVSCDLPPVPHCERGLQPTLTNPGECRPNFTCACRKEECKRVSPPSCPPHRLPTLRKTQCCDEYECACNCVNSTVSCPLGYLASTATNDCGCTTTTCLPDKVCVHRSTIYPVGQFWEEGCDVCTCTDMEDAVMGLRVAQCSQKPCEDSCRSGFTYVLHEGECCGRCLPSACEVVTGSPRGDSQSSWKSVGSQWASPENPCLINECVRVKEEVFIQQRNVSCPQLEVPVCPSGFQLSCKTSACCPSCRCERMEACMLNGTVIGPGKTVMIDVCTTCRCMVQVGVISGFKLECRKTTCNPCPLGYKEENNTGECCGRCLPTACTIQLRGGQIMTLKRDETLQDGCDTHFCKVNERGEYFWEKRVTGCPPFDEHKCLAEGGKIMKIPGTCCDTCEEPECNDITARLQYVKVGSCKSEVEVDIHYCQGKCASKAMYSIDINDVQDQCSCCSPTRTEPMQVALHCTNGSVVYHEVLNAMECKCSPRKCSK
# A1A2 fragment, sequence (P04275 1261-1674 D1472H limits assumed): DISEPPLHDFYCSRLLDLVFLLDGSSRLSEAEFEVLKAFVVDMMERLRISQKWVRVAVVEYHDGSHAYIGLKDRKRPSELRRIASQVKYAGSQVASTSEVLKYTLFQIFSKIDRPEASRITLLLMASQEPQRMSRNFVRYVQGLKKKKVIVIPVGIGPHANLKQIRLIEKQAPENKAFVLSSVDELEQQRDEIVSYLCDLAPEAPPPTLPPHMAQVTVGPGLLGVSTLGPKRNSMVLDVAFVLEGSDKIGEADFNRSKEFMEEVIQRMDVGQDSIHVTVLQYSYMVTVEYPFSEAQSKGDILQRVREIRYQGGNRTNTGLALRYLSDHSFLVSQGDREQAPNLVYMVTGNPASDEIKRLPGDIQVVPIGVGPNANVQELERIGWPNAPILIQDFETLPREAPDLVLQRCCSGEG
# T6 sequence (P04275 764-2813 limits assumed): as the sequence (P04275 764-2813 limits assumed) above
# T3 sequence (P04275 1473-1674): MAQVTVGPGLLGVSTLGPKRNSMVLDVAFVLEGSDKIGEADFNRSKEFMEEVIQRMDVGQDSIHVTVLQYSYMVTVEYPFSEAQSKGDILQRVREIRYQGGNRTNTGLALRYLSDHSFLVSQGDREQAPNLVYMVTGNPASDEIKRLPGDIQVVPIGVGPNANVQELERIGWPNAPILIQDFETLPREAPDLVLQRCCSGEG
# T5 sequence (P04275 764-2813 limits assumed): as the sequence (P04275 764-2813 limits assumed) above
# T1 sequence (P04275 1459-1674 D1472H): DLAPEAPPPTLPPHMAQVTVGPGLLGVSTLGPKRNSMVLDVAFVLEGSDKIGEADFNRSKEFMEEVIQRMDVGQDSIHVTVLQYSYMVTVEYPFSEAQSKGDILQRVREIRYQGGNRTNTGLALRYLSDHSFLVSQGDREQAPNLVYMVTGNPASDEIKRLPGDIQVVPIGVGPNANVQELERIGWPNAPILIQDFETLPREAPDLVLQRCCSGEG
molecule,measurement,setting,value
ristocetin,ADAMTS13 cleavage of long A2 fragment,[1],able to cleave
same,oxidation of Met1521 (methionine sulfoxide) in the A2 domain,Multimeric VWF; [4],more oxidized
same,oxidation of Met1606 (methionine sulfoxide) in the A2 domain,Multimeric VWF; [4],more oxidized
same,extent of methionine oxidation in the A1 domain,"Multimeric VWF; ristocetin versus buffer, 25 nM MPO and 50 μM H2O2 (FIG. 6B)",much less than in the A2 domain
same,ADAMTS13 cleavage of short A2 (lacking Asp1459-His1472),[2],unable to cleave
same,ADAMTS13 cleavage of A1A2A3,A1A2A3 (Asp1261-Ile1878),induced ADAMTS13 to cleave
same,minimum ristocetin concentration producing maximum proteolysis,"A1A2A3 (Asp1261-Ile1878); A1A2A3, 37° C., 5 hr, increasing concentrations (FIG. 2B)",approximately 0.8 mg/ml
same,"efficiency of enhancing ADAMTS13 cleavage, A1A2 fragment versus long A2 domain",A1A2 fragment; FIG. 3,more efficiently in the A1A2 fragment
same,ADAMTS13 cleavage of A1A2 fragment,"A1A2 fragment; in the presence of ristocetin, 37° C., 5 hr (FIG. 3)",able to cleave
same,effect on ability of recombinant ADAMTS13 to cleave purified multimeric plasma VWF,[3],accelerated
same,effect on ability of endogenous ADAMTS13 to cleave VWF in diluted plasma,"VWF; 1.0 mg/ml ristocetin, 10-fold diluted plasma, 37° C., compared with 1.5 M urea (FIG. 1B)",enhanced
O=C(O)CN(CCN(CC(=O)O)CC(=O)O)CC(=O)O [EDTA],effect on proteolysis of VWF,"VWF; antibody 20 μg/ml, EDTA 10 mM per methods",inhibited
NC(N)=O [urea],ADAMTS13 cleavage of short A2 (lacking Asp1459-His1472),[2],cleaved it normally
CN[C@H](CC(C)C)C(=O)N[C@H]1C(=O)N[C@@H](CC(N)=O)C(=O)N[C@H]2C(=O)N[C@H]3C(=O)N[C@H](C(=O)N[C@H](C(=O)O)c4cc(O)cc(O)c4-c4cc3ccc4O)[C@H](O)c3ccc(c(Cl)c3)Oc3cc2cc(c3O[C@@H]2O[C@H](CO)[C@@H](O)[C@H](O)[C@H]2O[C@H]2C[C@](C)(N)[C@H](O)[C@H](C)O2)Oc2ccc(cc2Cl)[C@H]1O [vancomycin],ADAMTS13 cleavage of A1A2A3,A1A2A3 (Asp1261-Ile1878),not mimicked
